One assay deals with E. coli BL21. The assay is described as follows: Antibiotic gradient plate susceptibility of E. coli transformants with plasmids bearing E. coli mar genes. Type of assay: cell-based, Escherichia coli. From the text:
PCR oligonucleotide primers were used to prepare a wild-type marA amplicon from E. coli AG100 (A. M. George, et al, J. Bacteriol., 1983, 155:531-540) chromosomal DNA, based on the annotated sequence (S. P. Cohen, et al. J. Bacteriol., 1993, 175:1484-1492). The oligonucleotide primers corresponded with nucleotide positions 1893 to 1910 and 2265 to 2282 and contained terminal EcoRI restriction enzyme sites to allow insertion of marA in frame with the hsp60 mycobacterial heat shock promoter resident on the E. coli-Mycobacterium shuttle plasmid pMV261 (W. R. Jacobs, et al. Microbiol. Immunol., 1990, 155:153-160). […] These mutant marA genes were ligated to pMV261 and pET13a for testing in M. smegmatis and E. coli, respectively. Plasmids were introduced into E. coli and M. smegmatis mc^2155 by electroporation with a Gene Pulser transfection apparatus (Bio-Rad. Richmond, Calif.) and selected on kanamycin (10 or 25 μg/ml).
To obtain support for the notion that the resistance phenotype was a direct result of MarA activity in the cell, insertional mutants targeted to the first helix-turn-helix domain (HTH1) (M. N. Alekshun, et al. Chemother, 41:2067-2075) of the MarA protein were constructed. […] A double-stranded synthetic oligonucleotide with compatible ends was ligated to the NheI sites to produce two distinct insertional mutants interrupting each of the two putative alpha-helical regions (FIG. 1). These mutated genes were cloned into pMV261, as described above, for susceptibility testing in M. smegmatis at 37° C. They were also expressed from the isopropyl-β-D-thiogalactopyranoside (IPTG)-regulated T7 promoter resident on plasmid pET13a for testing in E. coli BL21 (Studier et al. 1990. Methods Enzymol. 185:60). Insertional inactivation of MarA at either helix A or helix B of the first HTH abolished the multidrug resistance phenotype in both E. coli and M. smegmatis the (Table 3 and 4).

The subject of the next assay is M. smegmatis mc^2155. Type of assay: cell-based, Mycobacterium smegmatis.
Setting [1] is: transformant pEC10 (pET13::marA), same gradients.
Setting [2] is: transformant pET13a (vector), gradient (µg/ml) CML 2.0, TET 1.0, AMP 3.0, NAL 1.0.

SMILES strings stand for the structures. Where a name gives a salt, the structure may show the parent alone.

In the case of `CC1(C)S[C@@H]2[C@H](NC(=O)[C@H](N)c3ccccc3)C(=O)N2[C@H]1C(=O)O` [AMP, ampicillin], the results for the “% Gowth in antibiotic gradient” value in the assay with E. coli BL21 (setting [1]) and in the assay on E. coli BL21 (setting [2]) were 11 ± 2.0% and 2 ± 1.1%, respectively.
Regarding `O=C(N[C@H](CO)[C@H](O)c1ccc([N+](=O)[O-])cc1)C(Cl)Cl` [CML, chloramphenicol], in the assay with M. smegmatis mc^2155, the “fold increase of resistance in the presence of marA” value (“fold increase of resistance” below) is on record as “two-fold” and the “resistance compared to the microbe with vector alone” value (shortened to “resistance compared to the microbe”) was “increased resistance”. The “% Gowth in antibiotic gradient” value with E. coli BL21 (setting [1]) came to 100%. For the same compound, the “% Gowth in antibiotic gradient” value with E. coli BL21 (setting [2]) was found to be 20 ± 1.1%.
On to `CC[C@@H](CO)NCCN[C@@H](CC)CO` [ETM, ethambutol], for which, in the assay on M. smegmatis mc^2155, the “fold increase of resistance” value is given as 1.5 fold and the “resistance compared to the microbe” value was “increased resistance”.
As for `NNC(=O)c1ccncc1` [INH, isoniazid], in the assay on M. smegmatis mc^2155, the “fold increase of resistance” value was determined as 2.5 fold and the “resistance compared to the microbe” value is “increased resistance”.
For the compound `CCn1cc(C(=O)O)c(=O)c2ccc(C)nc21` [NAL, nalidixic acid], the “change in susceptibility in the presence of marA” value (“change in susceptibility” for short) in the assay on M. smegmatis mc^2155 was “Little if any change in susceptibility”. Moreover, the entries for the “% Gowth in antibiotic gradient” value in the assay with E. coli BL21 (setting [1]) and in the assay with E. coli BL21 (setting [2]) were 100% and 17 ± 0.8%, respectively.
Regarding `CCn1cc(C(=O)O)c(=O)c2cc(F)c(N3CCNCC3)cc21` [Nor, norfloxacin], the “change in susceptibility” value in the assay with M. smegmatis mc^2155 is “some increased susceptibility”.
For `CO[C@H]1/C=C/O[C@@]2(C)Oc3c(C)c(O)c4c(O)c(c(/C=N/N5CCN(C)CC5)c(O)c4c3C2=O)NC(=O)/C(C)=C\C=C\[C@H](C)[C@H](O)[C@@H](C)[C@@H](O)[C@@H](C)[C@H](OC(C)=O)[C@@H]1C` [RIF, rifampin], in the assay with M. smegmatis mc^2155, the “resistance compared to the microbe” value was “Increased resistance” and the “resistance in the presence of vector alone” value is listed as “increased”.
For `CN(C)[C@@H]1C(O)=C(C(N)=O)C(=O)[C@@]2(O)C(O)=C3C(=O)c4c(O)cccc4[C@@](C)(O)[C@H]3C[C@@H]12` [TET, tetracycline], the “% Gowth in antibiotic gradient” value in the assay with E. coli BL21 (setting [1]) is listed as 100%; in the assay with E. coli BL21 (setting [2]) it was 33 ± 1.0%; in the assay with E. coli BL21 ({}) it was 33 ± 1.4%.
`COS(=O)(=O)[O-].C[n+]1c2ccccc2nc2ccccc21` [phenazine methosulfate]: the “change in susceptibility” value with M. smegmatis mc^2155 is listed as “Little if any change in susceptibility”.
Same read-out and setting: under `C[C@@H]1CN(c2c(F)c(N)c3c(=O)c(C(=O)O)cn(C4CC4)c3c2F)C[C@H](C)N1` [sparfloxacin] stands “Little if any change in susceptibility”; under `[H]/N=C(/N)N[C@H]1[C@H](O)[C@@H](O)[C@H](O[C@@H]2O[C@@H](C)[C@](O)(C=O)[C@H]2O[C@@H]2O[C@@H](CO)[C@H](O)[C@@H](O)[C@@H]2NC)[C@@H](N/C(N)=N\[H])[C@@H]1O` [streptomycin, streptomycin sulfate], “some increased susceptibility”.

These data come from US20100292091A1, “MARA FAMILY HELIX-TURN-HELIX DOMAINS AND THEIR METHODS OF USE” (Trustees of Tufts College, priority 1998, published 2010).
